Measurements as given in patent US7138361B2, “Herbicidal heterocycles” (E. I. du Pont de Nemours and Company, priority 2000, dated 2006).

Legend:
Format in all cases: in vivo
[1] = tested on: smallflower flatsedge (Cyperus difformis); experiment: Test C flooded paddy test; conditions: for Flatsedge plant response rating: Flooded Paddy, scale 0 to 100, 0 no effect, 100 complete control; for Plant response rating, Flatsedge: flooded paddy test, scale 0 to 100 (0 no effect, 100 complete control)
Method in brief: (§1)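 Each species was cultivated to 2 leaves in flooded paddy pots, then treated. After a greenhouse period of 12–14 days, the plants were scored visually relative to controls from 0 (no effect) to 100 (complete control).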

[2] = tested on: duck salad (Heteranthera limosa); experiment: Test C flooded paddy test; conditions: for Ducksalad plant response rating: Flooded Paddy, scale 0 to 100, 0 no effect, 100 complete control; for Plant response rating, Ducksalad: flooded paddy test, scale 0 to 100 (0 no effect, 100 complete control)
Method in brief: as §1

[3] = tested on: barnyardgrass (Echinochloa crus-galli); experiment: Test C flooded paddy test; conditions: for Barnyardgrass plant response rating: Flooded Paddy, scale 0 to 100, 0 no effect, 100 complete control; for Plant response rating, Barnyardgrass: flooded paddy test, scale 0 to 100 (0 no effect, 100 complete control)
Method in brief: as §1

rice (Oryza saliva) [4] = experiment: Test C flooded paddy test; conditions: for Rice plant response rating: Flooded Paddy, scale 0 to 100, 0 no effect, 100 complete control; for Plant response rating, Rice: flooded paddy test, scale 0 to 100 (0 no effect, 100 complete control)
Method in brief: as §1

[5] = tested on: morning glory (Ipomoea hederacea); experiment: Test B preemergence; conditions: Preemergence, Rate 500 g/ha; scale 0 to 100, 0 no effect, 100 complete control
Method in brief: (§2)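 Seeds were planted and sprayed preemergence with test chemical in a non-phytotoxic solvent mixture containing surfactant; postemergence plants (2 to 18 cm, 1- to 4-leaf stage) received the same formulation. Greenhouse hold 13 to 15 days, then visual rating versus untreated controls on a 0–100 scale (0 no effect, 100 complete control).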

[6] = tested on: Surinam grass (Brachiaria decumbens); experiment: Test B preemergence; conditions: scale 0 to 100, 0 no effect, 100 complete control
Method in brief: as §2

[7] = tested on: crabgrass (Digitaria sanguinalis); experiment: Test B preemergence; conditions: scale 0 to 100, 0 no effect, 100 complete control
Method in brief: as §2

[8] = tested on: lambsquarters (Chenopodium album); experiment: Test B preemergence; conditions: scale 0 to 100, 0 no effect, 100 complete control
Method in brief: as §2

corn (Zea mays) [9] = experiment: Test B preemergence; conditions: scale 0 to 100, 0 no effect, 100 complete control
Method in brief: as §2

[10] = tested on: cocklebur (Xanthium strumarium); experiment: Test B preemergence; conditions: scale 0 to 100, 0 no effect, 100 complete control
Method in brief: as §2

[11] = tested on: giant foxtail (Setaria faberii); experiment: Test B preemergence; conditions: scale 0 to 100, 0 no effect, 100 complete control
Method in brief: as §2

[12] = tested on: pigweed (Amaranthus retroflexus); experiment: Test B preemergence; conditions: Preemergence, Rate 500 g/ha; scale 0 to 100, 0 no effect, 100 complete control
Method in brief: as §2

[13] = tested on: velvetleaf (Abutilon theophrasti); experiment: Test B preemergence; conditions: Preemergence, Rate 500 g/ha; scale 0 to 100, 0 no effect, 100 complete control
Method in brief: as §2

[14] = tested on: barnyardgrass (Echinochloa crus-galli); experiment: Test B preemergence; conditions: scale 0 to 100, 0 no effect, 100 complete control
Method in brief: as §2

rice (Oryza saliva) [15] = experiment: Test B preemergence; conditions: Preemergence, Rate 500 g/ha; scale 0 to 100, 0 no effect, 100 complete control
Method in brief: as §2

[16] = tested on: morning glory (Ipomoea hederacea); experiment: Test B postemergence; conditions: 13 to 15 days
Method in brief: as §2

[17] = tested on: Surinam grass (Brachiaria decumbens); experiment: Test B postemergence; conditions: 13 to 15 days
Method in brief: as §2

corn (Zea mays) [18] = experiment: Test B postemergence; conditions: 13 to 15 days
Method in brief: as §2

[19] = tested on: blackgrass (Alopecurus myosuroides); experiment: Test B postemergence; conditions: 13 to 15 days
Method in brief: as §2

[20] = tested on: giant foxtail (Setaria faberii); experiment: Test B postemergence; conditions: 13 to 15 days
Method in brief: as §2

[21] = tested on: pigweed (Amaranthus retroflexus); experiment: Test B postemergence; conditions: 13 to 15 days
Method in brief: as §2

[22] = tested on: velvetleaf (Abutilon theophrasti); experiment: Test B postemergence; conditions: 13 to 15 days
Method in brief: as §2

[23] = tested on: wheat (Triticum aestivum); experiment: Test B postemergence; conditions: 13 to 15 days
Method in brief: as §2

[24] = tested on: barnyardgrass (Echinochloa crus-galli); experiment: Test B postemergence; conditions: 13 to 15 days
Method in brief: as §2

Nightshade = experiment: Test C preemergence; conditions: Rate 250 g/ha, visual evaluation after 12 to 14 days
Sunflower = experiment: Test C preemergence; conditions: Rate 125 g/ha, scale 0 to 100, 0 no effect, 100 complete control
[25] = Rate 125 g/ha, scale 0 (no effect) to 100 (complete control)
[26] = Rate 500 g/ha, scale 0 to 100, 0 is no effect, 100 is complete control

CC(C)c1ccn(C2SCN(c3cccc(OC(F)(F)F)c3)C2=O)n1 (stereo not drawn) [Compound 31]
Flatsedge plant response rating ([1]; Rate 250 g/ha): 100
Flatsedge plant response rating ([1]; Rate 500 g/ha): 100
Plant response rating, Flatsedge ([1]; Rate 62 g/ha): 100
Plant response rating, Flatsedge ([1]; Rate 125 g/ha): 100
Ducksalad plant response rating ([2]; Rate 250 g/ha): 100
Ducksalad plant response rating ([2]; Rate 500 g/ha): 100
Plant response rating, Ducksalad ([2]; Rate 62 g/ha): 70
Plant response rating, Ducksalad ([2]; Rate 125 g/ha): 90
Barnyardgrass plant response rating ([3]; Rate 250 g/ha): 90
Barnyardgrass plant response rating ([3]; Rate 500 g/ha): 100
Plant response rating, Barnyardgrass ([3]; Rate 62 g/ha): 80
Plant response rating, Barnyardgrass ([3]; Rate 125 g/ha): 80
Rice plant response rating (rice (Oryza saliva) [4]; Rate 250 g/ha): 90
Rice plant response rating (rice (Oryza saliva) [4]; Rate 500 g/ha): 90
Plant response rating, Rice (rice (Oryza saliva) [4]; Rate 62 g/ha): 30
Plant response rating, Rice (rice (Oryza saliva) [4]; Rate 125 g/ha): 60
Plant response rating, Morningglory [5]: 0
Plant response rating, Surinam grass ([6]; Preemergence, Rate 500 g/ha): 70
Plant response rating, Surinam grass ([6]; preemergence, Rate 125 g/ha): 30
Plant response rating, Crabgrass ([7]; Preemergence, Rate 500 g/ha): 100
Plant response rating, Crabgrass ([7]; preemergence, Rate 125 g/ha): 100
Plant response rating, Lambsquarters ([8]; Preemergence, Rate 500 g/ha): 100
Plant response rating, Lambsquarters ([8]; preemergence, Rate 125 g/ha): 100
Plant response rating, Corn (corn (Zea mays) [9]; Preemergence, Rate 500 g/ha): 0
Plant response rating, Corn (corn (Zea mays) [9]; preemergence, Rate 125 g/ha): 0
Plant response rating, Cocklebur ([10]; Preemergence, Rate 500 g/ha): 0
Plant response rating, Cocklebur ([10]; preemergence, Rate 125 g/ha): 0
Plant response rating, Foxtail, Giant ([11]; Preemergence, Rate 500 g/ha): 90
Plant response rating, Foxtail, Giant ([11]; preemergence, Rate 125 g/ha): 30
Plant response rating, Pigweed [12]: 100
Plant response rating, Velvetleaf [13]: 0
Plant response rating, Barnyardgrass ([14]; Preemergence, Rate 500 g/ha): 100
Plant response rating, Barnyardgrass ([14]; preemergence, Rate 125 g/ha): 100
Plant response rating, Rice (rice (Oryza saliva) [15]): 0
Plant response rating, Morningglory [16, 25]: 10
Plant response rating, Morningglory [16, 26]: 30
Plant response rating, Surinam grass [17, 25]: 0
Plant response rating, Surinam grass [17, 26]: 0
Plant response rating, Corn (corn (Zea mays) [18]; [25]): 0
Plant response rating, Corn (corn (Zea mays) [18]; [26]): 0
Plant response rating, Blackgrass [19, 25]: 0
Plant response rating, Blackgrass [19, 26]: 0
Plant response rating, Foxtail, Giant [20, 25]: 0
Plant response rating, Foxtail, Giant [20, 26]: 20
Plant response rating, Pigweed [21, 25]: 20
Plant response rating, Pigweed [21, 26]: 60
Plant response rating, Velvetleaf [22, 25]: 0
Plant response rating, Velvetleaf [22, 26]: 0
Plant response rating, Wheat [23, 25]: 0
Plant response rating, Wheat [23, 26]: 0
Plant response rating, Barnyardgrass [24, 25]: 100
Plant response rating, Barnyardgrass [24, 26]: 100
Plant response rating (0 to 100), Nightshade (Nightshade): 100
Plant response rating, Sunflower (Sunflower): 30
